According to PubChem BioAssay AID1996:
Values after ≈ are worked out from the molar mass of the structure shown.

Details: buffer; pH 7.4; 200.0 µM

| Structure (SMILES) | solubility kinetic |
| --- | --- |
| O=C(Nc1ccc(Cl)cc1F)c1cccc2ccccc12 | 1 µg/mL (≈ 3.34 µM) |
| CCn1ccnc1CN(C)Cc1nc(-c2cccc(Cl)c2)no1 | 37.8 µg/mL (≈ 114 µM) |
| CC1=CC(C)(C)NC(=S)N1NC(=O)c1ccccc1Cl | > 46.5 µg/mL |
| COc1ccc(CCN2CC(C(=O)NCC(c3ccccc3)N(C)C)CC2=O)cc1OC (configuration not stated) | > 65.9 µg/mL |
| COc1ccc(NC(=O)C2CCOC(C)(C)C2)cc1 (configuration not stated) | > 39.5 µg/mL |
| CCOC(=O)CNC(=O)c1cnc(Nc2ccccc2OC)c2ccccc12 | 5.4 µg/mL (≈ 14.2 µM) |
| Cc1ccc(OCC(=O)N2C(C)CCCC2C)c([N+](=O)[O-])n1 (configuration not stated) | > 46.1 µg/mL |
| O=C(COC(=O)CNC(=O)C1CCCCC1)NCc1ccccc1 | > 49.9 µg/mL |
| CC1(c2ccccc2)NC(=O)N(CC(=O)N(c2ccccc2)C2CCS(=O)(=O)C2)C1=O (configuration not stated) | 60.3 µg/mL (≈ 137 µM) |
| S=C(NCc1ccccc1)N1CCN(C2CCCCC2)CC1 | > 47.6 µg/mL |
| NC(=Nc1ccccc1)c1ccccc1 | > 29.4 µg/mL |
| CCn1c(C)nc2cc(N)ccc21.Cl | 34.3 µg/mL |
| COCC(C)Nc1nc(C)c(C(C)=O)s1 (configuration not stated) | > 34.2 µg/mL |
| CC(C)c1ccc(NC(=O)CCCN2C(=O)NC(C)(C)C2=O)cc1 | 37.8 µg/mL (≈ 114 µM) |
| CCCCS(=O)(=O)N1CCCC(C(=O)NCC2CCCO2)C1 (configuration not stated) | 41.1 µg/mL (≈ 124 µM) |
| Cc1c(C)n2c3c(cccc13)CC2 | 0.4 µg/mL (≈ 2.34 µM) |
| Cc1cccc(-c2noc(CCC(=O)Nc3ccc(C(N)=O)cc3)n2)c1 | 0.5 µg/mL (≈ 1.43 µM) |
| CCOC(=O)CNC(=O)c1cccnc1Oc1ccc(Cl)cc1 | 20.2 µg/mL (≈ 60.3 µM) |
| Cc1ccc(NC(=S)N(Cc2ccccc2)Cc2cccs2)c(C)c1 | 0.8 µg/mL (≈ 2.18 µM) |
| CC(C)C(NC(=O)c1ccccc1F)C(=O)Nc1nccs1 (configuration not stated) | 48.2 µg/mL (≈ 150 µM) |
| COc1ccc(OCC(O)CNC(=O)Nc2cc(C)cc(C)c2)cc1 (configuration not stated) | 3.8 µg/mL (≈ 11 µM) |
| N/C(CS(=O)(=O)c1ccc(F)cc1)=N\O | > 34.8 µg/mL |
| Cc1cc(C(=O)N2CCC(Cc3ccccc3)CC2)c(C)o1 | 41.6 µg/mL (≈ 140 µM) |
| Cc1ccc(N(CC(=O)N2CCOCC2)S(C)(=O)=O)cc1Cl | > 52 µg/mL |
| O=C(NC(=S)/C(=C1\CCCCCN1)[N+](=O)[O-])c1ccccc1 | 44.9 µg/mL (≈ 141 µM) |

| Structure (SMILES) | solubility kinetic |
| --- | --- |
| CSc1ccc(CN(C)CC(=O)NCCc2ccccc2)cc1 | > 49.3 µg/mL |
| CCC(=O)c1c(NC)cc(C)oc1=O | > 29.3 µg/mL |
| CCCCN(Cc1cc2cccc(C)c2[nH]c1=O)S(C)(=O)=O | 41 µg/mL (≈ 127 µM) |
| COc1ccc(NC(=O)c2c(N)no[n+]2[O-])cc1 | 3 µg/mL (≈ 12 µM) |
| COc1ccccc1CC(=O)NCCc1ccccc1 | > 40.4 µg/mL |
| S=C(NCc1ccco1)NCC1CCCO1 (configuration not stated) | 34.8 µg/mL (≈ 145 µM) |
| COc1ccc2[nH]c3c(c2c1)CC(C)NC3=O (configuration not stated) | 33.3 µg/mL (≈ 145 µM) |
| CNc1ccc(Oc2c(F)c(F)nc(F)c2F)cc1 | 6 µg/mL (≈ 22 µM) |
| Cc1ccc(C(C)(c2ccc(N)cc2)c2ccc(N)cc2)cc1 | 10.3 µg/mL (≈ 34.1 µM) |
| O=C(c1cc2cc([N+](=O)[O-])ccc2oc1=O)N1CCN(C2CCCCC2)CC1 | > 57.8 µg/mL |
| CC(C)c1csc2nc3n(c(=O)c12)CCCCC3 | 32.9 µg/mL (≈ 125 µM) |
| Cc1cc(NC(=O)COc2c(C)cccc2C)no1 | 6.9 µg/mL (≈ 26.5 µM) |
| CC1CN(C(=O)c2ccc([N+](=O)[O-])s2)CC(C)O1 (configuration not stated) | > 40.5 µg/mL |
| O=C(COC(=O)c1ccc([N+](=O)[O-])o1)Nc1ccc(F)cc1 | > 46.2 µg/mL |
| O=C(Cc1c(F)cccc1Cl)Nc1nccs1 | 30 µg/mL (≈ 111 µM) |
| COc1cccc(C(C)NC(=O)Cc2cccs2)c1 (configuration not stated) | > 41.3 µg/mL |
| O=[N+]([O-])c1cccnc1N1CCN(c2ccc(F)cc2)CC1 | 12.1 µg/mL (≈ 40 µM) |
| Cc1ccc(C)c(NC(=O)C2C3C=CC(O3)C2C(=O)O)c1 (configuration not stated) | > 43.1 µg/mL |
| O=C(NC1CCCC1)C1CCCN(S(=O)(=O)c2ccc(F)cc2)C1 (configuration not stated) | 3.4 µg/mL (≈ 9.59 µM) |
| O=C(COC(=O)/C=C/c1ccc(F)cc1)NC1CC1 | 28.8 µg/mL (≈ 109 µM) |
| Cc1cccc(C)c1NC(=S)N1CCCCCC1 | > 39.4 µg/mL |
| O=C1N/C(=N\c2ccccn2)SC1Cc1ccc(Cl)cc1 (configuration not stated) | < 0.2 µg/mL |
| Cc1ccc(NC(=O)c2ccc(=O)[nH]c2)cc1S(=O)(=O)N1CCCCCC1 | > 58.4 µg/mL |
| CCC(C)(C)NC(=O)C1CC(=O)N(CCc2ccc(F)cc2)C1 (configuration not stated) | > 48.1 µg/mL |
| Cc1c(C)n(C)c2ccc(C(=O)NCCc3ccco3)cc12 | > 44.5 µg/mL |

| Structure (SMILES) | solubility kinetic |
| --- | --- |
| COc1cccc(N(CC(=O)N2CCOCC2)S(C)(=O)=O)c1 | > 49.3 µg/mL |
| CC(C)(C)C(=O)Nc1ccc(-c2cc3cc(Cl)ccc3o2)cc1 | 0.8 µg/mL (≈ 2.44 µM) |
| CCNC(=S)N/N=C(\C)c1cccc(OC)c1 | > 37.7 µg/mL |
| CN(C)c1ccc(NC(=O)Nc2csc3ccccc23)cc1 | 0.7 µg/mL (≈ 2.25 µM) |
| Cn1c(O)c(/C=C2\C=c3ccccc3=NC2=O)c(=O)n(C)c1=O | > 46.7 µg/mL |
| O=C(COC(=O)c1ccc2c(c1)OCCO2)NCCc1ccccc1 | 11.7 µg/mL (≈ 34.3 µM) |
| Cl.O=[N+]([O-])c1ccc(N2CCCNCC2)c2ncccc12 | 36.7 µg/mL |
| COc1ccccc1NC(=S)NC12CN3CN(CN(C3)C1)C2 | 43.3 µg/mL (≈ 136 µM) |
| CC1CCCCC1NC(=O)COC(=O)COc1ccccc1Cl (configuration not stated) | 17.8 µg/mL (≈ 52.4 µM) |
| CC(C)c1ccc(NC(=O)NCc2ccccn2)cc1 | > 40.4 µg/mL |
| Cc1ccc(N2CCN(C(=S)Nc3ccccc3)CC2)cc1 | 1 µg/mL (≈ 3.21 µM) |
| CC(C)C(=O)Nc1ccc(N2CCCC2)c(Cl)c1 | 10.4 µg/mL (≈ 39 µM) |
| CC(=O)Nc1ccccc1OC(C)C(=O)N1CC(C)CC(C)C1 (configuration not stated) | > 47.8 µg/mL |
| CCOc1ccc(NC(=O)CN2C(=O)CSC2=O)cc1 | > 44.1 µg/mL |
| CCOC(=O)/C(C(=Nc1ccccc1)Nc1ccccc1)=C(\C)O | 29.5 µg/mL (≈ 90.9 µM) |
| Cc1ccc(Cc2c(C)c(C#N)c3[nH]c4ccccc4n3c2=O)cc1 | < 0.2 µg/mL |
| CC(=O)c1sc(Nc2cccc3ccccc23)nc1C.Cl | 5.2 µg/mL |
| CC(C)N1CCN(Cc2cnc(-c3ccccc3)s2)CC1CCO (configuration not stated) | > 51.8 µg/mL |
| COc1ccc(C(=O)N2CCc3cc4c(cc3C2C)OCCCO4)cc1 (configuration not stated) | > 53 µg/mL |
| CC(C)(C)c1ccc(C(=O)O/N=C(\N)c2ccccc2)cc1 | 1.1 µg/mL (≈ 3.71 µM) |
| CCN(CC(=O)NCc1cccs1)C(=O)Cc1ccc(Cl)c(Cl)c1 | > 57.8 µg/mL |
| O=C(C1COc2ccccc2O1)N1CCCCC1 (configuration not stated) | > 37.1 µg/mL |
| CCc1cc(=O)[nH]c(SCC(=O)Nc2cc(C)on2)n1 | > 44.1 µg/mL |
| O=C(Nc1ccc(Cl)cc1)N1CCSC1=NCc1ccccc1 | 26 µg/mL (≈ 75.2 µM) |
| O=C(Cn1c(CO)nc2ccccc21)NCCc1ccccc1 | > 46.4 µg/mL |

| Structure (SMILES) | solubility kinetic |
| --- | --- |
| Cl.O=C(CN1CCOCC1)c1ccc(Br)cc1 | > 48.1 µg/mL |
| CN1CCC(N(C)C(=O)c2ccc(Cl)c(S(=O)(=O)N3CCc4ccccc43)c2)CC1 | > 67.2 µg/mL |
| Cc1cc(C)nc(Nc2ccc(F)cc2)n1 | > 32.6 µg/mL |
| O=S(=O)(c1ccccc1)N1CCN(Cc2ccccc2)CC1 | 0.5 µg/mL (≈ 1.58 µM) |
| CC(=O)c1ccc(NC(=O)C2CCCC2)cc1 | 32.6 µg/mL (≈ 141 µM) |
| Cc1cc(=O)n(C(C)(C)C)c(=O)n1Cc1ccccc1 | > 40.9 µg/mL |
| COc1ccc(S(=O)(=O)NC2CCCC2)cc1Cl | > 43.5 µg/mL |
| COC(=O)c1ccc(S(=O)(=O)NCc2ccc(OC)cc2)n1C | > 50.8 µg/mL |
| CC1=CC(C)(C)N(C(=O)CN2C(=O)CCC2=O)c2ccccc21 | > 46.9 µg/mL |
| Cc1cccc(OCCCC(=O)Nc2nccs2)c1C | 1.5 µg/mL (≈ 5.17 µM) |
| Cc1cc(C)c(OCCCn2ccnc2)c(C)c1 | 27.2 µg/mL (≈ 111 µM) |
| COc1ccc2[nH]c(C(=O)NCc3ccc4c(c3)OCO4)cc2c1 | 1.1 µg/mL (≈ 3.39 µM) |
| COc1ccc(Br)cc1C(=O)Nc1cccc2ncccc12 | 1.7 µg/mL (≈ 4.76 µM) |
| Cc1ccc(C(C)NC(=O)c2cccs2)cc1C (configuration not stated) | 5.7 µg/mL (≈ 22 µM) |
| CC(C)NC(=O)c1ccc2c(c1)N(CC(=O)N1CCCCC1)C(=O)C(C)(C)O2 | 44.8 µg/mL (≈ 116 µM) |
| O=C(CSc1ccccc1F)NCCCN1CCCC1=O | > 46.6 µg/mL |
| COc1cccc(CNC(=O)CCNC(=O)c2ccccc2OC)c1 | > 51.4 µg/mL |
| O=C(CSc1nc2ccccc2[nH]1)NCc1ccc(F)cc1 | > 47.3 µg/mL |
| CC(=O)N1CCN(C23CC4CC(CC(C4)C2)C3)CC1 | > 39.4 µg/mL |
| N#Cc1ccccc1OCC(=O)Nc1ccccc1C(=O)NC1CC1 | 48.3 µg/mL (≈ 144 µM) |
| O=C(c1cc(S(=O)(=O)N2CCOCC2)ccc1F)N1CCc2ccccc21 | > 58.6 µg/mL |
| CCC(C(=O)Nc1nc(C)c(C(=O)OC)s1)c1ccccc1 (configuration not stated) | 22.6 µg/mL (≈ 71 µM) |
| COc1ccc([N+](=O)[O-])cc1NS(=O)(=O)c1cccc(C(=O)OC2CCOC2=O)c1 (configuration not stated) | > 65.5 µg/mL |
| COc1cccc(C=O)c1OC(=O)N1CCOCC1 | > 39.8 µg/mL |
| CC(=O)N[C@@H](CS)C(=O)O | > 24.5 µg/mL |

| Structure (SMILES) | solubility kinetic |
| --- | --- |
| Cc1cccc(NC(=O)Nc2ccc(S(N)(=O)=O)cc2)c1 | 22.1 µg/mL (≈ 72.4 µM) |
| CCOc1nc(C)cc(COC)c1C(N)=O | > 33.6 µg/mL |
| Cc1ccc(-c2nc3ccccc3[nH]2)cn1 | 29.5 µg/mL (≈ 141 µM) |
| CCOC(=O)CCNCc1ccc(OC)c(OC)c1.Cl | > 45.6 µg/mL |
| Cc1csc(SC(C)C(=O)Nc2ccc(F)cc2Cl)n1 (configuration not stated) | 44.9 µg/mL (≈ 136 µM) |
| COc1ccccc1OCC(=O)OCC(=O)NC1CCCCC1 | > 48.2 µg/mL |
| CNC(=S)N1CCC(NC(=O)c2ccco2)CC1 | > 40.1 µg/mL |
| Cc1cc(C(=O)Nc2cc(S(C)(=O)=O)ccc2Cl)c(C)o1 | 11.8 µg/mL (≈ 36 µM) |
| CCc1ccccc1NC(=O)c1ccccc1N1C(=O)C2C3C=CC(C3)C2C1=O (configuration not stated) | 43.4 µg/mL (≈ 112 µM) |
| COc1ccc(-c2csc3ncnc(NCCCO)c23)cc1 | 42.2 µg/mL (≈ 134 µM) |
| COc1ccc(S(=O)(=O)N2CCN(C)CC2)cn1 | > 40.7 µg/mL |
| Cc1cc(C)cc(C(=O)NCc2ccc3c(c2)OCO3)c1 | 5.8 µg/mL (≈ 20.5 µM) |
| CN(C)C(=S)Nc1ccc(N2CCOCC2)cc1 | > 39.8 µg/mL |
| CNC(=S)/N=C/NOCc1c(Cl)cccc1Cl | 9.5 µg/mL (≈ 32.5 µM) |
| O=[N+]([O-])c1ccccc1S(=O)(=O)NCCc1ccncc1 | 43.8 µg/mL (≈ 143 µM) |
| O=C(NC(=O)c1ccccc1)Nc1ccc(Cl)cn1 | < 0.2 µg/mL |
| COc1ccc(C(=O)OC(C)CN2CCN(C)CC2)cc1.Cl (configuration not stated) | > 49.3 µg/mL |
| COc1ccc(OCC(=O)N(C)CC2COc3ccccc3O2)cc1 (configuration not stated) | > 51.5 µg/mL |
| Cc1cccc2c(SCC(N)=O)nc(-c3ccccc3)nc12 | < 0.2 µg/mL |
| Cc1occc1C(=O)N1CCCC(Nc2ccc(F)cc2)C1 (configuration not stated) | > 45.4 µg/mL |
| COc1ccc(C(=O)NC(=S)N2CCOCC2)cc1OC | > 46.6 µg/mL |
| O=C(Nc1ncccn1)c1ccc(Cl)c([N+](=O)[O-])c1 | > 41.8 µg/mL |
